Results: PubChem BioAssay AID2060338 (Molecular Pharmacology Branch, DTP, NCI, 2025)
“And” between values parts separate entries of the source, which are not always exact repeats. Equal values may be shown once.

Tested on: 556581-035-R-J1-PDC spheroids with HUVEC/MSC, viability
Assay: Anticancer human tumor 556581-035-R-J1-PDC patient-derived ovarian carcinoma cell line growth inhibition [IpAb]
Settings: for viability, T/C: stronger effect = lower value
Summary of the method: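 Spheroids of 60% malignant cells, 25% HUVEC and 15% MSC were exposed to targeted agents combined with ipatasertib or abemaciclib. Doses started at or near clinical Cmax (10 microM when unknown) and fell in half-log steps.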

[1] = curve of first compound, second compound 0.1 µM
[2] = curve of first compound, second compound 0.316 µM
[3] = curve of first compound, second compound 1 µM
[4] = curve of first compound, second compound 3.16 µM
[5] = curve of first compound, second compound 10 µM
[6] = second compound 0.1 µM, first compound 0.00316 µM
[7] = second compound 0.1 µM, first compound 0.01 µM
[8] = second compound 0.1 µM, first compound 0.0316 µM
[9] = second compound 0.1 µM, first compound 0.1 µM
[10] = second compound 0.1 µM, first compound 0.316 µM
[11] = second compound 0.1 µM, first compound 1 µM
[12] = second compound 0.316 µM, first compound 0.00316 µM
[13] = second compound 0.316 µM, first compound 0.01 µM
[14] = second compound 0.316 µM, first compound 0.0316 µM
[15] = second compound 0.316 µM, first compound 0.1 µM
[16] = second compound 0.316 µM, first compound 0.316 µM
[17] = second compound 0.316 µM, first compound 1 µM
[18] = second compound 1 µM, first compound 0.00316 µM
[19] = second compound 1 µM, first compound 0.01 µM
[20] = second compound 1 µM, first compound 0.0316 µM
[21] = second compound 1 µM, first compound 0.1 µM
[22] = second compound 1 µM, first compound 0.316 µM
[23] = second compound 1 µM, first compound 1 µM
[24] = second compound 3.16 µM, first compound 0.0316 µM
[25] = second compound 3.16 µM, first compound 0.1 µM
[26] = second compound 3.16 µM, first compound 0.316 µM
[27] = second compound 3.16 µM, first compound 1 µM
[28] = second compound 10 µM, first compound 0.0316 µM
[29] = second compound 10 µM, first compound 0.1 µM
[30] = second compound 10 µM, first compound 0.316 µM
[31] = second compound 10 µM, first compound 1 µM
[32] = second compound 0.1 µM, first compound 3.16 µM
[33] = second compound 0.1 µM, first compound 10 µM
[34] = second compound 0.316 µM, first compound 3.16 µM
[35] = second compound 0.316 µM, first compound 10 µM
[36] = second compound 1 µM, first compound 3.16 µM
[37] = second compound 1 µM, first compound 10 µM
[38] = curve of first compound, second compound 0.01 µM
[39] = curve of first compound, second compound 0.0316 µM
[40] = second compound 0.01 µM, first compound 0.0316 µM
[41] = second compound 0.01 µM, first compound 0.1 µM
[42] = second compound 0.0316 µM, first compound 0.0316 µM
[43] = second compound 0.0316 µM, first compound 0.1 µM
[44] = second compound 0.01 µM, first compound 0.316 µM
[45] = second compound 0.01 µM, first compound 1 µM
[46] = second compound 0.01 µM, first compound 3.16 µM
[47] = second compound 0.01 µM, first compound 10 µM
[48] = second compound 0.0316 µM, first compound 0.316 µM
[49] = second compound 0.0316 µM, first compound 1 µM
[50] = second compound 0.0316 µM, first compound 3.16 µM
[51] = second compound 0.0316 µM, first compound 10 µM
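Also: spheroids exposed to compounds for 7 days before readout.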

COc1c(OCCCN2CCOCC2)ccc2c3n(c(=NC(=O)c4cnc(N)nc4)nc12)CCN3 + CC(C)NCC(C(=O)N1CCN(c2ncnc3c2C(C)CC3O)CC1)c1ccc(Cl)cc1
IC50 [1]: 0.0254 µM | IC50 [2]: 0.0316 µM | IC50 [3]: 0.019 µM | IC50 [4]: 0.0139 µM | IC50 [5]: 0.00333 µM | viability, T/C [6]: 73.8% | viability, T/C [7]: 61.1% | viability, T/C [8]: 45.6% | viability, T/C [9]: 36.1% | viability, T/C [10]: 16.5% | viability, T/C [11]: 3.99% | viability, T/C [12]: 91.6% | viability, T/C [13]: 62.8% | viability, T/C [14]: 55.1% | viability, T/C [15]: 31.5% | viability, T/C [16]: 15.6% | viability, T/C [17]: 2.82% | viability, T/C [18]: 64.1% | viability, T/C [19]: 57% | viability, T/C [20]: 42% | viability, T/C [21]: 36.3% | viability, T/C [22]: 14.6% | viability, T/C [23]: 2.64% | viability, T/C (second compound 3.16 µM, first compound 0.00316 µM): 50.2% | viability, T/C (second compound 3.16 µM, first compound 0.01 µM): 45.2% | viability, T/C [24]: 55.3% | viability, T/C [25]: 39.3% | viability, T/C [26]: 11.8% | viability, T/C [27]: 5.41% | viability, T/C (second compound 10 µM, first compound 0.00316 µM): 52% | viability, T/C (second compound 10 µM, first compound 0.01 µM): 42.8% | viability, T/C [28]: 38.5% | viability, T/C [29]: 33.6% | viability, T/C [30]: 14.7% | viability, T/C [31]: 5.1%

C=CCn1c(=O)c2cnc(Nc3ccc(N4CCN(C)CC4)cc3)nc2n1-c1cccc(C(C)(C)O)n1 + CC(C)NCC(C(=O)N1CCN(c2ncnc3c2C(C)CC3O)CC1)c1ccc(Cl)cc1
IC50 [1]: 0.217 µM | IC50 [2]: 0.186 µM | IC50 [3]: 0.145 µM | IC50 [4]: 0.071 µM | IC50 [5]: < 0.0316 µM | viability, T/C [8]: 106% | viability, T/C [9]: 82.7% | viability, T/C [10]: 27.3% | viability, T/C [11]: 31.7% | viability, T/C [32]: 42.9% | viability, T/C [33]: 34.8% | viability, T/C [14]: 94.4% | viability, T/C [15]: 75.8% | viability, T/C [16]: 22.9% | viability, T/C [17]: 26.4% | viability, T/C [34]: 35.1% | viability, T/C [35]: 27.5% | viability, T/C [20]: 64.2% | viability, T/C [21]: 62.7% | viability, T/C [22]: 18.9% | viability, T/C [23]: 22% | viability, T/C [36]: 27.4% | viability, T/C [37]: 26.4% | viability, T/C [24]: 60.8% | viability, T/C [25]: 45.5% | viability, T/C [26]: 17.2% | viability, T/C [27]: 13.2% | viability, T/C (second compound 3.16 µM, first compound 3.16 µM): 23.2% | viability, T/C (second compound 3.16 µM, first compound 10 µM): 22.8% | viability, T/C [28]: 43.3% | viability, T/C [29]: 35.9% | viability, T/C [30]: 14.8% | viability, T/C [31]: 11.6% | viability, T/C (second compound 10 µM, first compound 3.16 µM): 18.2% | viability, T/C (second compound 10 µM, first compound 10 µM): 19.7%

Cn1ncnc1[C@H]1c2n[nH]c(=O)c3cc(F)cc(c23)N[C@@H]1c1ccc(F)cc1 + CCN1CCN(Cc2ccc(Nc3ncc(F)c(-c4cc(F)c5nc(C)n(C(C)C)c5c4)n3)nc2)CC1
IC50 [38]: > 0.1 µM | IC50 [39]: > 0.1 µM | IC50 [1]: > 0.1 µM | IC50 [2]: 0.0838 µM | IC50 [3]: 0.00165 µM | viability, T/C (second compound 0.01 µM, first compound 0.000316 µM): 80.6% | viability, T/C (second compound 0.01 µM, first compound 0.001 µM): 107% | viability, T/C (second compound 0.01 µM, first compound 0.00316 µM): 80.9% | viability, T/C (second compound 0.01 µM, first compound 0.01 µM): 83.6% | viability, T/C [40]: 84.1% | viability, T/C [41]: 63.7% | viability, T/C (second compound 0.0316 µM, first compound 0.000316 µM): 84.9% | viability, T/C (second compound 0.0316 µM, first compound 0.001 µM): 82.8% | viability, T/C (second compound 0.0316 µM, first compound 0.00316 µM): 90.6% | viability, T/C (second compound 0.0316 µM, first compound 0.01 µM): 83.2% | viability, T/C [42]: 61.3% | viability, T/C [43]: 60% | viability, T/C (second compound 0.1 µM, first compound 0.000316 µM): 67.7% | viability, T/C (second compound 0.1 µM, first compound 0.001 µM): 81.3% | viability, T/C [6]: 84.9% | viability, T/C [7]: 83.2% | viability, T/C [8]: 63.1% | viability, T/C [9]: 55.2% | viability, T/C (second compound 0.316 µM, first compound 0.000316 µM): 70.8% | viability, T/C (second compound 0.316 µM, first compound 0.001 µM): 77.8% | viability, T/C [12]: 69.8% | viability, T/C [13]: 79.1% | viability, T/C [14]: 59.2% | viability, T/C [15]: 48.3% | viability, T/C (second compound 1 µM, first compound 0.000316 µM): 51.5% | viability, T/C (second compound 1 µM, first compound 0.001 µM): 59.2% | viability, T/C [18]: 43.1% | viability, T/C [19]: 37.3% | viability, T/C [20]: 41.9% | viability, T/C [21]: 44.4%

Cn1nccc1Nc1nccc(-c2ccn(C(CO)c3ccc(Cl)c(F)c3)c(=O)c2)n1 (configuration not stated)
viability, T/C (compound 0.0316 µM): 114% and 133% | viability, T/C (compound 0.1 µM): 117% and 135% | viability, T/C (compound 0.316 µM): 103% and 124% | viability, T/C (compound 1 µM): 86.2% and 104% | viability, T/C (compound 3.16 µM): 61.3% and 88.7% | viability, T/C (compound 10 µM): 17.8% and 38.4% | IC50 (curve of compound): 4.16 µM and 7.69 µM

Cn1nccc1Nc1nccc(-c2ccn(C(CO)c3ccc(Cl)c(F)c3)c(=O)c2)n1 (configuration not stated) + CCN1CCN(Cc2ccc(Nc3ncc(F)c(-c4cc(F)c5nc(C)n(C(C)C)c5c4)n3)nc2)CC1
IC50 [38]: 9.08 µM | IC50 [39]: 6.09 µM | IC50 [1]: 5.33 µM | IC50 [2]: 7.52 µM | IC50 [3]: 5.34 µM | viability, T/C [40]: 110% | viability, T/C [41]: 145% | viability, T/C [44]: 127% | viability, T/C [45]: 109% | viability, T/C [46]: 95.4% | viability, T/C [47]: 45.8% | viability, T/C [42]: 119% | viability, T/C [43]: 140% | viability, T/C [48]: 128% | viability, T/C [49]: 98.5% | viability, T/C [50]: 72% | viability, T/C [51]: 34.8% | viability, T/C [8]: 107% | viability, T/C [9]: 123% | viability, T/C [10]: 134% | viability, T/C [11]: 119% | viability, T/C [32]: 63.4% | viability, T/C [33]: 33.8% | viability, T/C [14]: 92.2% | viability, T/C [15]: 103% | viability, T/C [16]: 144% | viability, T/C [17]: 101% | viability, T/C [34]: 87.3% | viability, T/C [35]: 37.9% | viability, T/C [20]: 78% | viability, T/C [21]: 85.5% | viability, T/C [22]: 128% | viability, T/C [23]: 72.3% | viability, T/C [36]: 71.5% | viability, T/C [37]: 27.2%

Cn1ncc(Cl)c1-c1cc(C(=O)NC(CN)Cc2cccc(F)c2)sc1Cl (configuration not stated) + CCN1CCN(Cc2ccc(Nc3ncc(F)c(-c4cc(F)c5nc(C)n(C(C)C)c5c4)n3)nc2)CC1
IC50 [38]: 1.61 µM | IC50 [39]: 1.8 µM | IC50 [1]: 1.54 µM | IC50 [2]: 1.17 µM | IC50 [3]: 0.402 µM | viability, T/C [40]: 96% | viability, T/C [41]: 81.6% | viability, T/C [44]: 64.2% | viability, T/C [45]: 60.7% | viability, T/C [46]: 44.3% | viability, T/C [47]: 0.26% | viability, T/C [42]: 85.4% | viability, T/C [43]: 78.5% | viability, T/C [48]: 79.1% | viability, T/C [49]: 56.9% | viability, T/C [50]: 41.1% | viability, T/C [51]: 0.2% | viability, T/C [8]: 91.4% | viability, T/C [9]: 82.2% | viability, T/C [10]: 63.9% | viability, T/C [11]: 54.2% | viability, T/C [32]: 47.1% | viability, T/C [33]: 0.18% | viability, T/C [14]: 88.5% | viability, T/C [15]: 92.3% | viability, T/C [16]: 54.8% | viability, T/C [17]: 60.6% | viability, T/C [34]: 31.5% | viability, T/C [35]: 12.4% | viability, T/C [20]: 56.7% | viability, T/C [21]: 54.3% | viability, T/C [22]: 50.5% | viability, T/C [23]: 44.7% | viability, T/C [36]: 25.6% | viability, T/C [37]: 0.54%
